Data published in patent US20200062719A1, “Application of Imidazopyridine Derivatives in Regenerative Medicine” (University of Heidelberg, priority 2018, published 2020).

What was measured:
KDM5C = biological target: T1, KDM5C (Homo sapiens, UniProt P41229); assay: KDM5C inhibition, enzyme immunoprecipitated from cells; type: biochemical
T1 construct: magnetic beads were used to immunoprecipitate the respective enzymes from 10^8 cells; endogenous in cells
From the text: In mammalian cells, the KDM5 family consists of four members, namely, KDM5A (known as JARID1A), KDM5B (known as JARID1B or PLU1), KDM5C (JARID1C), and KDM5D (JARID1D or SMCY). […] Next, the inventors tested four KDM chemical inhibitors. […] The inventors detected the induction of OCT4, SOX2, and E-Cadherin expression in JIB-04-treated HFs (FIG. 18D).
(§1) Epiquik histone demethylase (H3K4 specific) activity/inhibition assay kit (Epigentek, Biocat, Germany) was used to measure the protective effect of O4I3 and zolpidem on the methylation of H3K4. Their inhibitory effects on LSD1, KDM5s, and KDM4 were determined using Epigenase jarid demethylase activity/inhibition assay kit, Epigenase JMJD2 demethylase activity/inhibition assay kit and EpiQuik histone demethylase LSD1 activity/inhibition assay kit (Epigentek, Biocat, Germany). The total nuclear extraction was used according to manufacturer's instructions. For measuring KDM5A, KDM5B, KDM5C, and KDM5D activity, magnetic beads were used to immunoprecipitate the respective enzymes from 10^8 cells according to the manufacturer's instructions (Cell Signaling Technologies).

human fibroblasts = assay: Episome-based reprogramming of human fibroblasts, AP+ / iPSC-like colonies; type: cell-based
Experimental: O4I3 was applied in commercially available episome-based reprogramming cocktail containing episomal vectors for overexpression of Oct4, Sox2, Klf4, Lin28 and L-Myc, as well as suppression of p53. In comparison to non-treated fibroblast cultures, 20 times more alkaline phosphatase (AP) positive colonies were detected in the presence of O4I3 at a concentration of 50 nM in two tested human primary fibroblasts (HF1 and HF2) (FIG. 13).
It is known in the art that senescence or other unknown factors can confer donor fibroblasts resistance to reprogramming. Therefore, O4I3 was tested for its ability to enable reprogramming of refractory fibroblasts. Two human fibroblasts were selected. HFF-LTR7-EGFP at passage >40 carrying EGFP driven by a LTR7 promoter, which was activated during reprogramming, and HF5, isolated from a patient sample, both of which were resistant to an episome-based reprogramming approach (FIG. 13).
Epi5® Episomal iPSC Reprogramming Kit (Life technologies) was used to reprogram human fibroblasts according to the manufacturer's protocol. Briefly, 5,000-50,000 cells were seeded in a 24-well plate for 24 h and then transfected with episomal vectors in N2 B27 medium. After 14 days, cells were re-suspended with 0.5 mM EDTA and re-plated in a 6-well plate in Essential®8 medium. Colonies were isolated after 3-4 weeks with the help of alkaline phosphatase (AP) live stain (Life technologies). Medium was refreshed daily.

hiPSCs [1] = assay: Maintenance of hiPSCs, FACS of Tra-1-81 and Oct4 over passages; type: cell-based, human; conditions: 50 nM O4I3, FACS
Experimental: (§2) Since O4I3 induced sustainable expression of Oct4 and Nanog, the inventors questioned if it supports iPSC self-renewal in single cell expansion. Therefore, the viability of iPSCs, after replating Accutase®-dissociated single iPSCs, was tested in the presence or absence of O4I3. Rocki (Y-27632) was used for the first 24 h to increase iPSCs survival. A nearly 300% higher viability in cells treated with O4I3 (1 nM) was observed. Using 50 nM of O4I3 even 400% increase was observed (FIG. 2A). FACS analysis confirmed homologous expression of iPSCs markers, Tra-1-81 and Oct4, for at least 30 passages (FIG. 2B).
iPSCs were seeded in a 6-well plate coated with Geltrex. Cells were harvested, fixed and permeabilized (if appropriately) as known in the art (Cheng et al, Mol Oncol. 2016 June; 10(6):806-24). Fixed cells were incubated with the primary antibody for 24 h at 4° C. and with the secondary antibody for 1 h at room temperature.

hiPSCs [2] = assay: iPSC single cell expansion, viability by MTT assay; type: cell-based, human; conditions: versus absence of O4I3
Experimental: as §2
iPSC single cell expansion was performed according to a well-established protocol known in the art (Watanabe et al, Nat Biotechnol, 2007, 25(6), 681-6). Briefly, iPSCs were dissociated with Accutase® as single cell suspension and re-seeded in a Geltrex-coated 96-well plate in the presence of Rock inhibitor for the first 24 h in combination with/without O4I3. Cell viability was performed in MTT assay as disclosed elsewhere (Cheng et al, Mol Oncol. 2016 June; 10(6):806-24).

methylated H3K4 = assay: In vitro H3K4 methylation assay (Epiquik histone demethylase H3K4 specific kit); type: biochemical; conditions: in vitro methylation assay; read-out: IC50, protection of methylated H3K4
Experimental: as §1

T1 sequence (P41229 whole entry): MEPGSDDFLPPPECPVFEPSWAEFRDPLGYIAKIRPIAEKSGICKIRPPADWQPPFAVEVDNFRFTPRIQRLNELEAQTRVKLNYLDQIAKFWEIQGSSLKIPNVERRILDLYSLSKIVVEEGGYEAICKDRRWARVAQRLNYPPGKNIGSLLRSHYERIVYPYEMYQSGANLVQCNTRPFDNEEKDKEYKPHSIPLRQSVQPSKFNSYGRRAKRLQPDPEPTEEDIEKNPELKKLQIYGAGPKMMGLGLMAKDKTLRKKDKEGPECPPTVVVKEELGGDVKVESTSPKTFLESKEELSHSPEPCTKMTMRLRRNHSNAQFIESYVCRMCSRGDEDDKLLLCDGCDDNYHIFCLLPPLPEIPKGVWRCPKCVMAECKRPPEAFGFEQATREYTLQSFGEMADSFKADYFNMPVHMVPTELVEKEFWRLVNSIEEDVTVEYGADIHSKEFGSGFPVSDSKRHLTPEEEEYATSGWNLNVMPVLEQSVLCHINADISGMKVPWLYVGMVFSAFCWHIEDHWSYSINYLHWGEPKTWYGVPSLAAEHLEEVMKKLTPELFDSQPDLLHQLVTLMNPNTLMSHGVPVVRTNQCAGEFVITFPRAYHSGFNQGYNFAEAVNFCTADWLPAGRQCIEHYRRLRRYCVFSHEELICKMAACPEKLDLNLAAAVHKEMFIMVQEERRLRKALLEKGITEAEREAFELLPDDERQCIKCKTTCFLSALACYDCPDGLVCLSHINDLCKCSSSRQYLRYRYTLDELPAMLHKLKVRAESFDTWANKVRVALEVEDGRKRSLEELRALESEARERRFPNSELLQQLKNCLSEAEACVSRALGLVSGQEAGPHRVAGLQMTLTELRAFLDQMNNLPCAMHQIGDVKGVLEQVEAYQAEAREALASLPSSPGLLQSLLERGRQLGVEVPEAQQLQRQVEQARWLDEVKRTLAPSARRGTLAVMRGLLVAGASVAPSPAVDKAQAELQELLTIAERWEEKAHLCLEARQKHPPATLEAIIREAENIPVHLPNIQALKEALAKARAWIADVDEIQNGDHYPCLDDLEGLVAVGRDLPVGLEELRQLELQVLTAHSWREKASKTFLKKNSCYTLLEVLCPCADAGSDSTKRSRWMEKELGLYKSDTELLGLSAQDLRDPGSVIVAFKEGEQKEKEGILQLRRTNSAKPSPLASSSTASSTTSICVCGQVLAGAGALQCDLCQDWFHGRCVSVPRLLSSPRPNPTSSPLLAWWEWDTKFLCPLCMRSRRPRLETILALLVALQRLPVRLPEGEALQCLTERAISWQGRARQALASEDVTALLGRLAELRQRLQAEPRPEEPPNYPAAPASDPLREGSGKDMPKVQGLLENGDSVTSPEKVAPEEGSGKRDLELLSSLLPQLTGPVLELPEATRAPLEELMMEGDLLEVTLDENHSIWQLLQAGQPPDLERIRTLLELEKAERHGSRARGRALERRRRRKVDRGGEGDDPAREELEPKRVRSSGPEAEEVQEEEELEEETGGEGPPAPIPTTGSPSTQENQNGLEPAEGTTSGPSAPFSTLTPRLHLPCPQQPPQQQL

## Cc1ccc(-c2cn3cc(C)ccc3n2)cc1 [O4I3, 6-methyl-2-(p-tolyl)imidazo[1,2-a]pyridine]
KDM5C
  IC50 less potent than for KDM5A, KDM5C: 40 fold
Human fibroblasts; 50 nM, HF1 and HF2
  alkaline phosphatase (AP) positive colonies in comparison to non-treated fibroblast cultures: 20 times
Human fibroblasts; 500 Nm, HFF-LTR7-EGFP and HF5
  reprogramming of resistant fibroblasts: appearance of iPSC-like colonies
hiPSCs [1]
  homologous expression of Tra-1-81 and Oct4, number of passages: at least 30 passages
hiPSCs [2]; 1 nM
  higher viability of iPSCs in single cell expansion: ~300%
hiPSCs [2]; 50 nM
  higher viability of iPSCs in single cell expansion: 400%
Methylated H3K4
  IC50: 20 nM
